Consider two molecules from patent US20210196779A1, “Compositions and Methods for Treating Steroid Hormone-Related Diseases or Disorders” (YALE UNIVERSITY, priority 2018, published 2021).

One test relates to H3K9 acetylation. As to the kind of experiment: Western blot, MCF7 and 22RV1 cells, H3K9 acetylation. The following applies: MCF7 and 22RV1 cells (FIGS. 11A-11B), 24 h. The test is classed as cell-based. As to the method:
(§1) Western blot analysis was used to determine the protein expression using protein specific antibodies. β-actin or histone 3 was used to normalize protein loading.
(§2) Total cell lysis was conducted using 2×SDS sample buffer (62.5 mM Tris-HCl, 2% SDS, 10% glycerol, 50 mM DTT, and 0.05% bromophenol blue). The samples were sonicated for 10 s to shear DNA. Cell nuclei were isolated using Tris buffer saline with 0.4% NP40. Cell extracts were then electrophoresed through 10% SDS-polyacrylamide gels and transferred to 0.2 μm nitrocellulose membranes (Bio-Rad Laboratories, Hercules, Calif.) with a Miniprotein II transferring apparatus (Bio-Rad). The membranes were blocked and probed in TBS-T buffer (1×TBS buffer, 0.2% Tween 20) containing 5% non-fat milk. […] Enhanced chemiluminescence reagents (Perkin-Elmer Life Science Products, Boston, Mass.) were used to visualize the immunoreactive bands and the densities of protein bands were scanned analyzed using ImageJ software from the NIH.

In a further test the target is T1, GR (stimulated with DEX) (Homo sapiens, UniProt P04150).
T1 construct: expressed in transfected cells; host or cells: LNCaP (LNCaP-GR)
T1 sequence (P04150 whole entry): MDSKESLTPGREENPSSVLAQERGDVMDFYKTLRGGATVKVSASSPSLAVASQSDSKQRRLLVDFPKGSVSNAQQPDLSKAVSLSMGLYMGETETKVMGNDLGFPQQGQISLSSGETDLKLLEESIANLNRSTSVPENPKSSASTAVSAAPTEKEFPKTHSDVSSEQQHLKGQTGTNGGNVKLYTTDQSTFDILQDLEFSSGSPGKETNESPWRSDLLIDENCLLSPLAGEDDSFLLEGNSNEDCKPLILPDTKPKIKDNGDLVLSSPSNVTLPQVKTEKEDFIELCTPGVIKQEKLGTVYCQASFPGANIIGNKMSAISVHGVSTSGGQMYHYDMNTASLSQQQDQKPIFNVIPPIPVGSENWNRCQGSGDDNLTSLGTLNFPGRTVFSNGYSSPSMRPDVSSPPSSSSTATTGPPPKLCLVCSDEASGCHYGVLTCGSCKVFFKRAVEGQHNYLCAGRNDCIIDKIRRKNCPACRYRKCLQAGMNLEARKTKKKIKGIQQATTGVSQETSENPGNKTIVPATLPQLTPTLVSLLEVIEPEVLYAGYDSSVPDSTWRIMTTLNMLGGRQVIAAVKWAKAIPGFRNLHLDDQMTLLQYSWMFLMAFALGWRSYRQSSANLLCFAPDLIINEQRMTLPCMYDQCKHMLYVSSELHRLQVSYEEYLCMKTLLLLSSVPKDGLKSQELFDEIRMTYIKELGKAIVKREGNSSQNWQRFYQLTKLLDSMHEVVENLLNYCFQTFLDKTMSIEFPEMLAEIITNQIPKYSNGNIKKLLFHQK
As to the kind of experiment: GR driven luciferase activity (DEX) in LNCaP-GR cells. The format is cell-based. The following applies: LNCaP-GR luciferase reporter cells. On the procedure:
Both LNCaP and GR overexpressing LNCaP cells were carrying luciferase reporters with AR response elements.
Reporter cells were treated with herbal extracts at 30, 100, 300, and 1000 μg/ml for 24 h in a 37° C.-CO2 incubator. DHT (25 nM) was used to stimulate androgen receptor activity. Dexamethasone (50 nM) was used to stimulate glucocorticoid receptor activity Cells were lysed using luciferase lysis buffer after which luciferase buffer with luciferin was added to generate luminescence. Luminescence was recorded using a luminescence microplate reader.
Background: Reporter assays use an easily measured gene product as a stand-in for the process of interest.

Another test relates to CD47. As to the kind of experiment: Western blot, MCF7 cells, CD47. The test is classed as cell-based. The following applies: MCF7 cells (FIG. 10). As to the method:
as §2, with “milk. Monoclonal rabbit anti-AR (1:5000), was used to detect androgen receptor (Abcam #133273), Glucocorticoid Receptor (D8H2) XP® Rabbit mAb #3660, ERa Antibody (F-10): sc-8002, BRD4 (E2A7X) Rabbit mAb #13440, Brd2 (D89B4) Rabbit mAb #5848, PARP (46D11) Rabbit mAb #9532, Acetyl-Histone H3 (Lys27) (D5E4) XP® Rabbit mAb #8173 and a monoclonal actin antibody diluted 1:2500 (Sigma, St. Louis, Mo.) was used to detect β-actin as the internal control to confirm equal protein loading.” for “milk.”

The next test concerns H3K14 acetylation. As to the kind of experiment: Western blot, MCF7 and 22RV1 cells, H3K14 acetylation. The test is classed as cell-based. The settings on record: MCF7 and 22RV1 cells (FIGS. 11A-11B), 24 h. As to the method: as §1, §2
In test [1] the test system is histone 2AX serine 139 phosphorylation. As to the kind of experiment: Western blot, MCF7 cells, H2AX-ser139. The format is cell-based. The following applies: presence or absence of E2, 24 h. As to the method:
Western blot analysis was used to determine the protein expression using protein specific antibodies.
as §2, with “milk. Monoclonal rabbit anti-AR (1:5000), was used to detect androgen receptor (Abcam #133273), Glucocorticoid Receptor (D8H2) XP® Rabbit mAb #3660, ERa Antibody (F-10): sc-8002, BRD4 (E2A7X) Rabbit mAb #13440, Brd2 (D89B4) Rabbit mAb #5848, PARP (46D11) Rabbit mAb #9532, Acetyl-Histone H3 (Lys27) (D5E4) XP® Rabbit mAb #8173 and a monoclonal actin antibody diluted 1:2500 (Sigma, St. Louis, Mo.) was used to detect β-actin as the internal control to confirm equal protein loading.” for “milk.”

A further test addresses AR (stimulated with DHT) (Homo sapiens, UniProt P10275, T878A). Description: AR driven luciferase activity (DHT) in LNCaP / LNCaP-GR cells. The settings on record: LNCaP / LNCaP-GR luciferase reporter cells.
For another test, the system named is H3K27 acetylation. As to the kind of experiment: Western blot, MCF7 and 22RV1 cells, H3K27 acetylation. The test is classed as cell-based. The settings on record: 24 h. As to the method:
as §1, §2
On the technique in general: In western blotting, separated proteins are transferred to a membrane and probed.

For a further test, the system named is KLK2 mRNA. Description: qRT-PCR of KLK2 mRNA in 22RV1 cells. The test is classed as cell-based, Human. The following applies: 22RV1 cells treated overnight, normalized to beta-actin. As to the method: FIGS. 4C-4D are graphs showing the effect of Y1830, RG (or the fraction comprising RG) and RGA (or the fraction comprising RGA) on the mRNA of PSA (FIG. 4C) and KLK2 (FIG. 4D). 22RV1 cells were treated with Y1830, RGA or RG overnight and mRNA was extracted for qRT-PCR to determine the mRNA expression level of PSA and KLK2 as normalized to beta-actin.
RNA was extracted from herb treated cells using the Roche High Pure RNA isolation kit. cDNA was then generated from RNA samples using a Bio-rad iScript Advanced cDNA synthesis kit for RT-qPCR. qPCR was performed using human NRF2, H01, NQO1 and β-actin primers (Table 1) and iTaq™ Universal SYBR® Green Supermix in a CFX PCR machine (Bio-rad). Relative mRNA expression was calculated based on the change of the threshold cycle relative to the internal control, β-actin, using a standard curve generated by purified PCR products.

Sequence of AR (stimulated with DHT) (P10275 whole entry T878A): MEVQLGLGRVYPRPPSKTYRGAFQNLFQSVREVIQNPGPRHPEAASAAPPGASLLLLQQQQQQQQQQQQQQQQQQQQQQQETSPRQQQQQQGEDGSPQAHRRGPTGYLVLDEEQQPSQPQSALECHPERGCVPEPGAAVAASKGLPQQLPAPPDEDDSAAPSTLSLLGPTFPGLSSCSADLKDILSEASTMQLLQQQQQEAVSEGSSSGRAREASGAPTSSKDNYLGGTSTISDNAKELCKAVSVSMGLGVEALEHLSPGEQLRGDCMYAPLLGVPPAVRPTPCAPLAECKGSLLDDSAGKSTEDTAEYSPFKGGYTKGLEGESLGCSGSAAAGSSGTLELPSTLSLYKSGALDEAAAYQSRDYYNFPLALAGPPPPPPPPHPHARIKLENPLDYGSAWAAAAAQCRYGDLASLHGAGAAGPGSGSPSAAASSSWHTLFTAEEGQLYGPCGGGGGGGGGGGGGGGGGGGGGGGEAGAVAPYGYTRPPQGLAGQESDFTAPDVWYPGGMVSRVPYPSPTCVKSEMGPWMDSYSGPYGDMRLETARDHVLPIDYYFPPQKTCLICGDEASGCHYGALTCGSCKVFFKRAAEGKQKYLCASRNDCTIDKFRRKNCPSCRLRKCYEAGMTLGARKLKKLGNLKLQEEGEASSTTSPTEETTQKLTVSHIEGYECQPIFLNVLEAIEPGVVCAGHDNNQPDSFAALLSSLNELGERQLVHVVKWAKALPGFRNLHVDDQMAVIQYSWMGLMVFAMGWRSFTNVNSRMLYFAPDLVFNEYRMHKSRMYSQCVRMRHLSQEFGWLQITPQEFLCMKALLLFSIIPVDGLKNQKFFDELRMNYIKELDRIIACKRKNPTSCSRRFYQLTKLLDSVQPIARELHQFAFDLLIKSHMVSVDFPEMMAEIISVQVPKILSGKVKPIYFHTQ
Procedure for AR (stimulated with DHT): 22RV1 or LNCaP prostate cancer cells were used in the screening study. 22RV1 or LNCaP cell lines were stably transfected with PSA promoter-PGL4.2 luciferase reporter.
Reporter cells were treated with herbal extracts at 30, 100, 300, and 1000 μg/ml for 24 h in a 37° C.-CO2 incubator. […] Dexamethasone (50 nM) was used to stimulate glucocorticoid receptor activity Cells were lysed using luciferase lysis buffer after which luciferase buffer with luciferin was added to generate luminescence. Luminescence was recorded using a luminescence microplate reader.

On to `CC(=O)OCC1OC(Oc2cc3c(c(O)c2C)C(=O)c2ccc(O)cc2C3=O)C(OC2OC(C)C(O)C(O)C2O)C(O)C1O` [RGA, 1,3,6-Trihydroxy-2-methyl-9,10-anthracenedione 3-O-[α-L-Rhamnopyranosyl-(1→2)-6-O-acetyl-β-D-glucopyranoside]], for which the H3K9 acetylation result in the test on H3K9 acetylation is given as “did not have a large impact”. In addition, the “inhibition of DEX induced transcriptional response” value at GR (stimulated with DEX) is on record as “effectively inhibit”. Further, the CD47 expression result with CD47 is reported as “downregulation”. In the test with H3K14 acetylation, the H3K14 acetylation result is given as “did not have a large impact”. The “histone 2AX serine 139 phosphorylation” value in test [1] is “triggered”. Besides, at AR (stimulated with DHT), the “inhibition of DHT induced transcriptional response” value was “effectively inhibit”. Besides, the H3K27 acetylation entry with H3K27 acetylation is reported as “selectively decreased”.
Take `Cc1c(OC2OC(CO)C(O)C(O)C2OC2OC(C)C(O)C(O)C2O)cc2c(c1O)C(=O)c1ccc(O)cc1C2=O` [RG, 1,3,6-Trihydroxy-2-methyl-9,10-anthracenedione 3-O-[α-L-Rhamnopyranosyl-(1→2)-β-D-glucopyranoside]]: the “inhibition of mRNA expression of KLK2” value in the test with KLK2 mRNA was “did not demonstrate this level of activity”.
